Values of other authors in patent publication US20250339408A1, “TREATMENT AND PREVENTION OF BASAL CELL CARCINOMA WITH TOPICAL COMPOSITION COMPRISING PATIDEGIB” (Sol-Gel Technologies Ltd., priority 2023, published 2025).

Test system: patients with Gorlin Syndrome
Details: oral drugs; with and without PTCH1 mutation; cited from earlier work

| SMILES | Effect in patients with Gorlin Syndrome (in words) |
| --- | --- |
| CS(=O)(=O)c1ccc(C(=O)Nc2ccc(Cl)c(-c3ccccn3)c2)c(Cl)c1 [Vismodegib] | known to effect patients with Gorlin Syndrome, both with and without PTCH1 mutation |
| Cc1c(C(=O)Nc2ccc(N3C[C@@H](C)O[C@@H](C)C3)nc2)cccc1-c1ccc(OC(F)(F)F)cc1 [Sonidegib] | known to effect patients with Gorlin Syndrome, both with and without PTCH1 mutation |
